{"source": "patent US7524646B2", "about": "(priority 2001, dated 2009)", "assay_type_in_all_cases": "cell-based, E. coli", "key": {"[1]": {"tested_on": "strain β5498 carrying the valS:T222P allele", "experiment": "Amino acid composition of total protein after growth with Abu, valS:T222P", "conditions": "for valine in cellular protein replaced by Abu: whole cell protein, strain harboring the mutant allele, Abu 0.2 mM", "protocol": "(§1) We anticipated that ValRS mutants that misincorporated Cys would also misincorporate Abu. […] Whole cell protein was isolated from strain CU505 grown in the presence of Abu (0.2 mM), in the presence or absence of the valS:T222P allele in the host cell. […] Finally, the valine-rich yeast protein AlaXp (swissprot:P53960) was overexpressed and purified from strains containing the valS:T222P allele grown in the presence of Abu. The protein samples were digested by trypsin and analyzed by mass spectrometry. […] For a given peptide the degree of misincorporation ranged between 9.5% and 18% per Val codon. Sequencing of several Abu-containing peptides confirmed that Abu was specifically misincorporated into positions designated by Val codons.\n(§2) Table 2. Incorporation of Abu into cells bearing wild-type and T222P mutant alleles of valS. Cultures of the Δilv strain CU505 (19) and the isogenic strain β5498 carrying the valS:T222P allele were grown overnight in minimal medium (27) with Ile-Leu (0.3 mM) and limiting valine (0.04 mM Ile-Val), diluted (1/2), and adjusted with Ile-Val (0.02 mM) with or without Abu (0.2 mM). After 24 hours of growth, total protein was extracted as follows. Cells were first harvested by centrifugation and washed in cold 10% trichloroacetic acid (TCA, 1/2 of the culture volume). Cells were then re-centrifuged at 4000×g for 10 min, resuspended in cold 10% TCA (1/10 of the culture volume) and centrifuged again. The washed cells were resuspended in […], heated at 95° C. for 30 minutes and centrifuged (4000×g, 10 min). The precipitate was washed three times with cold acetone and dissolved in 50 mM NH4HCO3. Proteins were hydrolyzed in 6 N HCl-0.2% phenol at 110C. for 20 h in sealed tubes. Norleucine was added as an internal standard. Aliquots of the hydrolysates were analyzed on a Beckman 6300 Amino Acid Analyzer. Amino acids were quantified by appropriate standards and values are presented relative the wild-type (WT) control that lacked Abu."}, "[2]": {"tested_on": "valine auxotroph CU505", "experiment": "Growth of valine auxotroph with limiting valine and increasing Abu, wild-type valS", "conditions": "up to 1 mM Abu; OD 600 nm, 24 h, 30° C.", "protocol": "(§3) FIG. 3. A graph showing the results of growth of the valine auxotroph CU505 in the presence of a limiting supply of valine and increasing concentrations of Abu. Overnight cultures of Δilv auxotrophs containing the WT valS (É) or the mutant valS:T222P allele (J) and grown in MS glucose medium with limiting valine (0.04 mM Ile-Val. 0.3 mM Ile-Leu) were diluted 1/1, the Val concentration was adjusted to 0.02 mM and the biomass was determined by measuring the optical density at 600 nm after 24 h of growth at 30° C.\n(§4) Abu misincorporation. The valine auxotroph CU505 (33) was grown in the presence of a limiting supply of valine and increasing concentrations of Abu (FIG. 3). […] In contrast, when the valST222P allele was introduced into the chromosome (strain β5498), the yield of cells was diminished in the absence of Abu but increased up to 30% when Abu (0.2 mM) was added."}, "[3]": {"tested_on": "strain β5456 (valS:T222P)", "experiment": "Growth on Abu gradient plates, valS:T222P strain", "conditions": "gradient plate, 50 μl 0.1 M, 2 days at 37° C.", "protocol": "FIG. 1C: Photographs showing the results of growth of a strain carrying the valS:T222P allele in the presence of L-threonine or Abu. Minimal medium plates supplemented with thymidine (0.3 mM) were pretreated with amino acid solutions by streaking either with Thr (50 μl (0.2 M)) or Abu (50 μl (0.1 M)) vertically along the diameter of the plate to create an amino acid gradient. Mutant (β5456) and wild-type (β5419 (thyA::erm+ ΔnrdD::kan+ pTS13 (bla+ thyA: 146GUA)) strains were then streaked horizontally across the plates and incubated for 2 days at 37° C.\nas §1"}, "[4]": {"tested_on": "Δilv strain CU505 (wild-type valS)", "experiment": "Amino acid composition of total protein after growth with Abu, wild-type valS", "conditions": "WT + Abu (0.2 mM); 24 hours; relative to WT control that lacked Abu", "protocol": "as §1, §2"}, "[5]": {"tested_on": "strain β5498 (valS:T222P allele)", "experiment": "Growth of valine auxotroph with limiting valine and Abu, valS:T222P", "conditions": "Abu 0.2 mM; limiting valine 0.02 mM; OD 600 nm, 24 h, 30° C.", "protocol": "as §3, §4"}, "[6]": {"conditions": "T222P + Abu (0.2 mM), 24 hours, relative to WT control that lacked Abu"}}}
{"smiles": "CCC(N)C(=O)O", "note": "(stereo not drawn) [Abu, α-aminobutyric acid]", "values": [{"measurement": "Abu incorporated into total protein", "setting": "[1]; [6]", "result": 0.24}, {"measurement": "Ala incorporated into total protein", "setting": "[1]; [6]", "result": 0.92}, {"measurement": "Ile incorporated into total protein", "setting": "[1]; [6]", "result": 1.0}, {"measurement": "Val + Abu incorporated into total protein", "setting": "[1]; [6]", "result": 0.97}, {"measurement": "Val incorporated into total protein", "setting": "[1]; [6]", "result": 0.73}, {"measurement": "valine in cellular protein replaced by Abu", "setting": "[1]", "result": 24, "unit": "%"}, {"measurement": "valine in cellular protein replaced by Abu", "setting": "[1]; listed as aminobutyrate", "result": "Over 20%"}, {"measurement": "biomass of cells relative to the valine concentration", "setting": "[2]", "result": "did not change"}, {"measurement": "sensitivity of growth to Abu", "setting": "[3]", "result": "sensitive"}, {"measurement": "Abu incorporated into total protein", "setting": "[4]", "result": 0.0}, {"measurement": "Ala incorporated into total protein", "setting": "[4]", "result": 1.0}, {"measurement": "Ile incorporated into total protein", "setting": "[4]", "result": 1.0}, {"measurement": "Val + Abu incorporated into total protein", "setting": "[4]", "result": 1.0}, {"measurement": "Val incorporated into total protein", "setting": "[4]", "result": 1.0}, {"measurement": "increase of yield of cells", "setting": "[5]", "result": "up to 30%"}]}
